From EP2653477B1, “SCORPION ACTIVE PEPTIDES AND PREPARATION METHODS AND APPLICATIONS THEREOF” (Wuhan More Biotechnology Co., Ltd., priority 2010, dated 2012) come the findings set out here.

pIC50: −log10 of the molar value. Bridge positions count the residues as written; N and C are the ends. Peptide text beside a SMILES is read from it.

In one data set the test system is Wistar rat EAE model. As to the kind of experiment: EAE (multiple sclerosis) model in Wistar rats induced by GPSCH-CFA, clinical scoring. Format: in vivo. The conditions noted are these: 100 µg·kg^-1 subcutaneously once every day, x±s, n=10, score 0-5. The source says: Experimental animals: female inbred line Wistar rats (6∼8 week old, body weigh 150±10 g) and guinea pigs (300∼400 g, purchased from Wuhan University Laboratory Animal Center) were selected.
Formulating a mixed emulsion of whole spinal cord homogenate - Freund's complete adjuvant (GPSCH-CFA): a guinea pig was executed, and the spinal cord was rapidly removed, and prepared into 50% PBS homogenate by a ultrasonic disruptor (Sonics & Materials Inc, America), which was mixed with equal amount of Freund's complete adjuvant (BCG vaccine 10 mg/ml), and was pushed back and forth with syringes until forming a water-in-oil emulsion.
Wistar rat EAE model induced by EAE: GPSCH-CFA emulsion was injected intradermally into the foot pads of both the hind legs of Wistar rats, or simultaneously injected intradermally about 1×10^10 pertussis vaccine. The rats were weighed every day, and observed for their neurological symptoms. Experimental autoimmune encephalomyelitis appeared after the rats had been raised for 2 weeks.
The rats with experimental autoimmune encephalomyelitis (EAE) were divided into […] groups randomly: normal control group (negative control group), model control group (model rats + normal saline), administration group A (model rats + ADMR-011 polypeptide), administration group B (model rats + ADMR-016 polypeptide), administration group C (model rats + ADMR-019 polypeptide), administration group D (model rats + ADMR-023 polypeptide), and administration group E (model rats + ADMR-028 polypeptide), 10 rats for each group. For the administration groups, polypeptides ADMR-011, ADMR-016, ADMR-019, ADMR-023 and ADMR-028 were injected subcutaneously respectively at a dose of 100 µg·kg^-1, once every day in the morning. For the normal control group and the model control group, equivalent amount of normal saline was injected subcutaneously, and administered continuously. […] The highest clinical score for each animal was recorded, and the average value of them was taken to be the average clinical score.
The scoring criteria were: without any clinical symptom, 0 point; disappearance of tension in the tail, and observable mild awkward gait, 1 point; weakness in both the hind limbs, which can recover after passive body flipping, 2 points; paralysis in both the hind limbs, which can not recover after passive body flipping, 3 points; tetraplegia accompanied by incontinence of urine and feces, 4 points; moribund state or death, 5 points. Table 1. Scores for rats of various experimental groups in the EAE model (-x±s)

Another data set relates to Kunming mice. The data set can be described thus: toxicity study in mice, single intraperitoneal injection, 7 days observation. Format: in vivo. The conditions noted are these: 10 mg/kg intraperitoneally once (100 times the dose for animal model), observed 7 days. The procedure: 18∼20 g Kunming mice were selected, and divided into 4 groups, 8 male mice and 8 female mice for each group. The lyophilized powders of scorpion active polypeptides ADMR-011, ADMR-016, ADMR-019, ADMR-023 and ADMR-028 were dissolved with normal saline respectively, and the 3 groups of mice were injected intraperitoneally once respectively with polypeptide solution at a dose of 10 mg/kg (100 times of the dose for animal model), and the fourth group were injected with equivalent amount of normal saline as control.
After the administration, the respiration, motor and heartbeat in animals of all the groups were all normal, without significant abnormal reaction. 7 days after the administration, all the animals were conducted gross anatomy to observe the volume, color and texture of the main organs (heart, liver, spleen, lung, and kidney), and there was no macroscopic lesion. There were no significant difference between the 3 administration groups and the normal saline group.

For the next data set, the system named is rheumatoid arthritis. The data set can be described thus: pristane-induced rheumatoid arthritis in SD rats, joint score and hind foot plantar swelling. Format: in vivo. Further details: key to Score of joint: clinical score 1-4: 1 joint red/swollen=1 ... severe whole-limb arthritis=4. The settings on record: x±s, n=10; for Score of joint: arthritis rats, polypeptides 100 µg·kg^-1 (methotrexate 1.75 µg·kg^-1) subcutaneously once every day, score 1-4; for The swelling degree after the inflammation: volume difference of hind foot before and after the modeling. As for the experimental part:
[…] Female (♀) specific pathogen free (SPF) inbred line SD rats (Wuhan University Laboratory Animal Center), body weight 150±10 g, were selected, and pristane was injected intradermally at the base of the tail of rats in experimental groups at a dose of 0.2 ml/rat, after they were acclimatized in a clean-grade environment for 1 week. Rheumatoid arthritis appeared after the rats were raised for only 2 weeks.
The rats having arthritis were randomized into: normal control group (negative control group), model negative control group (model rat + normal saline), model positive control group (model rat + methotrexate), administration group A (model rat + ADMR-011 polypeptide), administration group B (model rat + ADMR-016 polypeptide), administration group C (model rat + ADMR-019 polypeptide), administration group D (model rat + ADMR-023 polypeptide), and administration group E (model rat + ADMR-028 polypeptide), 10 rats for each group. The administration groups were injected subcutaneously at a dose of 100 µg·kg^-1, once every day in the morning, and administered continuously; the normal control group and the model negative control group were injected subcutaneously with equivalent amount of normal saline; and the model positive control group were injected subcutaneously with methotrexate (MTX) at a dose of 1.75 µg·kg^-1, once every day, and administered continuously.
The highest clinical score for each animal was recorded, and the average value of them was taken to be the average clinical score. The scoring criteria were: one joint of a rat was red and swollen, 1 point; two joints of a rat were red and swollen, 2 points; all the joints of a rat were red and swollen, 3 points; severe arthritis in the entire limb of a rat, 4 points. Table 2. Arthritis scores for rats of various experimental groups (-x±s)
From day 8 of the experiment, the hind foot plantar volume of the rat was measured and recorded every other day for 21 consecutive days, and the swelling degree (mL) was calculated according to the volume difference before and after the modeling. Table 3. The swelling degree of rats in various experimental groups (-x±s)

The target in a further data set is T1, potassium channel Kv1.3 (Homo sapiens, UniProt P22001).
T1 construct: expressed in transfected cells; host or cells: COS-7 cells, selected with 0.8 mg/mL geneticin
As to the kind of experiment: whole-cell patch clamp, inhibition of Kv1.3 current in transfected COS-7 cells. The format is cell-based. The settings on record: potassium channel Kv1.3 in COS-7 cells, read-out: polypeptide concentrations that inhibit the current by half (IC50 value). The procedure:
COS-7 cells were cultured in a DMEM medium containing 10% fetal calf serum, at 37° C, 5% CO2. The recombinant plasmids of potassium channel Kv1.3 were transfected by using a Sofast™ transfection kit, and the transfected cells were selectively cultured in a medium containing 0.8 mg/mL geneticin. The pharmacological activities of scorpion active polypeptides ADMR-011, ADMR-016, ADMR-019, ADMR-023 and ADMR-028 were tested and analyzed by using an instrument of whole-cell patch clamp (EPC-10 dual-channel patch clamp amplifier HEKA, Elektronik, Lambrecht, Germany). The setting of the experimental parameters, the collecting of data, and the applying of stimulus were all controlled by Pulse software (Elektronik, Lambrecht, Germany). The filter of the instrument was set to be 10 kHz (Bessel), and the electrode impedance was 2∼5 MΩ. After the formation of giga-seal (1∼5 GΩ) between the electrode and cell membrane, an automatic c-fast was performed, and the membrane was broken by slightly applying negative pressure, then an automatic c-slow was performed. At a holding potential of -70 mV, depolarizing pulses, incrementing in 10 mV steps, with a step width of 80 ms , were given to stimulate from -60 mV to +50 mV, and the condition of current was observed. The polypeptides ADMR-011, ADMR-016 and ADMR-019 were accurately perfused, which was achieved by MPS-2 (INBIO Inc, Wuhan, China) perfusing system. After dissolving the three scorpion active polypeptides, they were applied by spraying via DAD Drug Application System (ALA), and the tip of the tube for drug application was about 100 µm away from the cell being recorded.
It can be known from Figure 16 to Figure 20 that, the pharmacological activity of ADMR-011 on potassium channel Kvl.3 was 91 pM, the pharmacological activity of ADMR-016 on potassium channel Kvl.3 was 2.58 nM, the pharmacological activity of ADMR-019 on potassium channel Kv1.3 was 1.41 nM, and the pharmacological activity of ADMR-023 and ADMR-028 on potassium channel Kvl.3 were 0.49 nM and 0.65 nM, respectively. Therefore, they are polypeptides with potent activity that are currently found internationally.
(In general: In patch-clamp work, channel activity is measured electrically.)

T1 sequence (P22001 whole entry): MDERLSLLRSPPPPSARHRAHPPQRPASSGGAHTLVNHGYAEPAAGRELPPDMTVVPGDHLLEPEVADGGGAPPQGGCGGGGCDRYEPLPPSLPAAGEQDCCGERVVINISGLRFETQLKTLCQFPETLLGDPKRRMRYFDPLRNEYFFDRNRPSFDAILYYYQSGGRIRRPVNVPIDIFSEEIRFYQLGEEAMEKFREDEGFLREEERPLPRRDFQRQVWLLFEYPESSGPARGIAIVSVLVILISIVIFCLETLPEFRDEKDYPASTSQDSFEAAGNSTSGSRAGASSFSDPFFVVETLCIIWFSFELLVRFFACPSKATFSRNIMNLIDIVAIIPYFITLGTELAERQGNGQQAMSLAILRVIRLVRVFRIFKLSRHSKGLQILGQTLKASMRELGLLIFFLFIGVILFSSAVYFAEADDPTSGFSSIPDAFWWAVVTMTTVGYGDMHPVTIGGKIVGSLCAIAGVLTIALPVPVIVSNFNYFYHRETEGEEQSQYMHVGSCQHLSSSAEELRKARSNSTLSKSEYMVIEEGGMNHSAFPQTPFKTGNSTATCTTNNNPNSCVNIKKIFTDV

In the case of `CC[C@H](C)[C@H](NC(=O)CNC(=O)[C@@H](N)C(C)C)C(=O)N[C@@H](CC(N)=O)C(=O)N[C@H](C(=O)N[C@@H](CCC(N)=O)C(=O)N[C@H]1CSSC[C@@H]2NC(=O)[C@H](CCC(N)=O)NC(=O)CNC(=O)[C@H](Cc3ccccc3)NC(=O)[C@H](CCCNC(=N)N)NC(=O)[C@H](CCSC)NC(=O)CNC(=O)[C@H](C)NC(=O)[C@H](CC(=O)O)NC(=O)[C@H](CCCCN)NC(=O)[C@@H]3CSSC[C@@H](C(=O)N[C@H](C(=O)N4CCC[C@H]4C(=O)N[C@@H](CCCCN)C(=O)O)[C@@H](C)O)NC(=O)[C@H](CC(=O)O)NC(=O)[C@H](CSSC[C@H](NC(=O)[C@H](CCC(N)=O)NC(=O)CNC(=O)[C@H](CO)NC(=O)[C@H](Cc4c[nH]cn4)NC(=O)[C@H](CC(N)=O)NC1=O)C(=O)N[C@@H](CC(C)C)C(=O)N[C@@H](CCCCN)C(=O)N1CCC[C@H]1C(=O)N3)NC(=O)[C@H](CCCCN)NC(=O)CNC(=O)[C@H](CC(N)=O)NC(=O)[C@H]([C@@H](C)CC)NC2=O)C(C)C` [ADMR-023] (H-VGINVQCNHSGQCLKPCKDAGMRFGQCINGKCDCTPK-OH; disulfide 7-27, 13-32, 17-34 (inferred); N-terminus and C-terminus assumed), the Average clinical scores with Wistar rat EAE model (8 d) was found to be 0.55±0.19; in the data set with Wistar rat EAE model (10 d), 0.81±0.29; in the data set with Wistar rat EAE model (12 d), 1.21±0.25; in the data set on Wistar rat EAE model (14 d), 1.17±0.27. The toxicity in mice entry with Kunming mice was “no significant toxicity”. Further, the values for the Score of joint with rheumatoid arthritis (10 d), in the data set with rheumatoid arthritis (15 d) and in the data set on rheumatoid arthritis (21 d) were 1.69±0.23, 2.23±0.71 and 1.85±0.59, respectively. The “The swelling degree after the inflammation” value in the data set on rheumatoid arthritis (d8) amounted to 0.035 ± 0.010 mL; with rheumatoid arthritis (d15), 0.25 ± 0.08 mL; in the data set with rheumatoid arthritis (d22) it was 0.32 ± 0.14 mL; in the data set on rheumatoid arthritis (d28) it was 0.29 ± 0.15 mL. For the same molecule, the pIC50 on potassium channel Kv1.3 was 9.31.
